What was measured:
Mus musculus [1] = assay: Toxicity in mouse allografted with mouse P388 cells at 2.9 mg/kg, ip; assay type: organism-based; design: dose 2.9 mg/kg, route intraperitoneal; settings: in vivo
P388 [2] = assay: Antitumor activity against mouse P388 cells allografted in ip dosed mouse assessed as optimal dose; assay type: functional
P388 [3] = assay: Antitumor activity against mouse P388 cells allografted in mouse assessed as average survival time at 2.9 mg/kg, ip relative to untreated control; assay type: functional; settings: route intraperitoneal
Mus musculus [4] = assay: Toxicity in mouse allografted with mouse P388 cells at 6.6 mg/kg, ip; assay type: organism-based; design: dose 6.6 mg/kg, route intraperitoneal; settings: in vivo
P388 [5] = assay: Antitumor activity against mouse P388 cells allografted in mouse assessed as average survival time at 6.6 mg/kg, ip relative to untreated control; assay type: functional; settings: route intraperitoneal
L1210 [6] = assay: Antitumor activity against mouse L1210 cells allografted in mouse assessed as average survival time at 4.4 mg/kg, ip relative to untreated control; assay type: functional; settings: route intraperitoneal
L1210 [7] = assay: Antitumor activity against mouse L1210 cells allografted in mouse assessed as average survival time at 6.6 mg/kg, ip relative to untreated control; assay type: functional; settings: route intraperitoneal
L1210 [8] = assay: Antitumor activity against mouse L1210 cells allografted in mouse assessed as average survival time at 10 mg/kg, ip relative to untreated control; assay type: functional; settings: route intraperitoneal
Mus musculus [9] = assay: Toxicity in mouse allografted with mouse P388 cells at 20 mg/kg, ip; assay type: organism-based; design: dose 20 mg/kg, route intraperitoneal; settings: in vivo
P388 [10] = assay: Antitumor activity against mouse P388 cells allografted in mouse assessed as average survival time at 20 mg/kg, ip relative to untreated control; assay type: functional; settings: route intraperitoneal
L1210 [11] = assay: Antitumor activity against mouse L1210 cells allografted in mouse assessed as average survival time at 15 mg/kg, ip relative to untreated control; assay type: functional; settings: route intraperitoneal
L1210 [12] = assay: Antitumor activity against mouse L1210 cells allografted in mouse assessed as average survival time at 22.5 mg/kg, ip relative to untreated control; assay type: functional; settings: route intraperitoneal
P388 [13] = assay: Antitumor activity against mouse P388 cells allografted in mouse assessed as average survival time at 4.4 mg/kg, ip relative to untreated control; assay type: functional; settings: route intraperitoneal
Mus musculus [14] = assay: Toxicity in mouse allografted with mouse P388 cells at 4.4 mg/kg, ip; assay type: organism-based; design: dose 4.4 mg/kg, route intraperitoneal; settings: in vivo

## COc1cccc2c1C(=O)c1c(O)c3c(c(O)c1C2=O)C[C@@](O)(C(C)=O)C[C@@H]3O[C@H]1C[C@H](N)[C@H](OC)[C@H](C)O1
Mus musculus [1]
  Activity: Non-toxic
P388 [2]
  Optimal dose: 2.9 mg/kg
P388 [3]
  T/C: 156%

## COc1cccc2c1C(=O)c1c(O)c3c(c(O)c1C2=O)C[C@@](O)(C(=O)CO)C[C@@H]3O[C@H]1C[C@H](N)[C@H](OC)[C@H](C)O1
Mus musculus [4]
  Activity: Non-toxic
P388 [5]
  T/C: 270%
L1210 [6]
  T/C: 287%
L1210 [7]
  T/C: 231%
L1210 [8]
  T/C: 62%
P388 [2]
  Optimal dose: 6.6 mg/kg

## COc1cccc2c1C(=O)c1c(O)c3c(c(O)c1C2=O)C[C@@](O)(C(C)=O)C[C@@H]3O[C@H]1C[C@H](N)[C@@H](OC)[C@H](C)O1
Mus musculus [9]
  Activity: Non-toxic
P388 [10]
  T/C: 174%
P388 [2]
  Optimal dose: 20 mg/kg

## COc1cccc2c1C(=O)c1c(O)c3c(c(O)c1C2=O)C[C@@](O)(C(=O)CO)C[C@@H]3O[C@H]1C[C@H](N)[C@@H](OC)[C@H](C)O1
L1210 [11]
  T/C: 181%
L1210 [12]
  T/C: 87%
L1210 [7]
  T/C: 169%
L1210 [8]
  T/C: 187%

## COc1cccc2c1C(=O)c1c(O)c3c(c(O)c1C2=O)C[C@@](O)(C(C)=O)C[C@@H]3O[C@H]1C[C@H](N)[C@H](O)[C@H](C)O1 [DAUNORUBICIN]
Mus musculus [1]
  Activity: Non-toxic
P388 [2]
  Optimal dose: 2.9 mg/kg
P388 [3]
  T/C: 169%

## COc1cccc2c1C(=O)c1c(O)c3c(c(O)c1C2=O)C[C@@](O)(C(=O)CO)C[C@@H]3O[C@H]1C[C@H](N)[C@H](O)[C@H](C)O1 [DOXORUBICIN]
L1210 [6]
  T/C: 169%
L1210 [7]
  T/C: 175%
P388 [13]
  T/C: 254%
L1210 [8]
  T/C: 187%
Mus musculus [14]
  Activity: Non-toxic
P388 [2]
  Optimal dose: 4.4 mg/kg

Reference: ChEMBL document CHEMBL3227963, “Synthesis and antitumor activity of 4'-O-methyldaunorubicin, 4'-O-methyladriamycin, and their 4'-epi analogues” (J Med Chem, 1979)
